Assay [1] concerns TLR4 (HEK-Blue hTLR4 cells). The assay can be described thus: SEAP activity (NF-κB), HEK-Blue hTLR4, LPS. The class given is cell-based. To be noted: n ≥ 3; for LPS-induced NF-κB activity (SEAP), peptides in the absence of CPP: not conjugated with CPP. How it is done:
(§1) HEK-Blue-hTLR4 cells were seeded at a density of 2 × 10^5 cells/well and grown overnight in 24-well plates (BD Biosciences). The next day, the supernatant was removed, and the medium was replaced with fresh medium. Aliquots of supernatants (200 µl) from the treated cells were transferred to microcentrifuge tubes and heated for 10 min at 65 °C on a heating block (FINEPCR Co., Seoul, Korea). The supernatants were then transferred into new 96-well plates (BD Biosciences), and SEAP production was quantified using the HEK-Blue detection kit (InvivoGen). HEK-Blue IL-1R cells were seeded at a density of 2 × 10^5 cells/well and grown in 24-well plates (BD Biosciences) overnight, and SEAP production was measured by means of QUANTI-Blue (InvivoGen). Absorbance was measured on a microplate reader (spectrophotometry system; Molecular Devices Inc., Silicon Valley, CA, USA) or a Cytation 5 Cell Imaging Multi-Mode Reader (Bio-Tek Instruments, Winooski, VT, USA) at 620 nm.
The TLR4-mediated response to LPS leads to a direct interaction between the TIR domains of TIRAP and MyD88, resulting in the subsequent activation of the MyD88-dependent downstream cascade. On the other hand, LPS-induced activation of TLR4 can cause the interaction between the TIR domains of TRAM and TRIF, which thereafter initiates MyD88-independent downstream signaling. Multiple peptides were designed from the TIR domain of TIRAP to possibly target the TIR domain of TLR4. […] The inhibitory effects of the peptides (TIP1 and TIP2) in the absence of CPP were evaluated by measuring the SEAP activity in HEK-Blue hTLR4 cells. […] To evaluate the specific binding of TIP1 to TLRs, we measured the NF-κB activity and protein expression of NF-κB and MAPKs by the SEAP activity assay and western blotting in HEK-Blue IL-1R cells. […]

Assay [2] has as its system TLR signaling (RAW 264.7 cells). Put plainly: TNF-α ELISA, RAW 264.7, peptides not conjugated with CPP. The class given is cell-based, mouse. The conditions noted are these: TIP1 without CPP 12.5, 25, and 50 µM (Fig. 2l); Poly(I:C) 24 h (Supplementary Fig. 1c). How it is done: RAW 264.7, THP1, and mBMDM cells were seeded at a density of 2 × 10^5 cells/well in 96-well plates (BD Biosciences) or at 5 × 10^5 cells/well in 24-well plates (BD Biosciences) and were grown overnight. After 24 h of treatment, IFN-β secretion was measured by means of the LEGEND MAX Mouse IFN-β precoated ELISA Kit (BioLegend), IL-6 secretion was assessed by a Mouse IL-6 ELISA MAX Deluxe (BioLegend) or Mouse IL-6 Platinum ELISA (eBioscience), TNF-α production was assessed using the Mouse TNF alpha ELISA Ready-SET-Go! kit (eBioscience), and the IL-1β cytokine level was measured with the Mouse or Human IL-1β ELISA Ready-SET-Go! kit (eBioscience). hBMNCs were seeded at a density of 4 × 10^4/well in 96-well plates (BD Biosciences) and then grown overnight. After 24 h of treatment, the secretion levels of IL-6 and TNF-α were assessed using Human IL-6 ELISA MAX Deluxe (BioLegend) and Human TNF alpha ELISA MAX Deluxe (BioLegend), respectively. The plates were then analyzed on a microplate spectrophotometer system (Molecular Devices) at the appropriate wavelength.
Fig. 2 Inhibitory effects of TIP1 on TLR signaling pathways. a Cell viability was measured by the MTT assay upon the treatment of RAW 264.7 cells with various concentrations of TIP1 (12.5, 25, or 50 µM) for 24 h. […] The secretion of IFN-β was measured by an ELISA. q hPBMCs were treated with TIP1 in the presence or absence of LPS. […]
On the technique in general: ELISA stands for enzyme-linked immunosorbent assay.

The subject of assay [3] is IL-1R (HEK-Blue IL-1R cells). The assay can be described thus: SEAP activity (NF-κB), HEK-Blue IL-1R, IL-1β. The class given is cell-based. The conditions noted are these: peptide 1 h before IL-1β (300 pg/ml), 24 h; n ≥ 3. How it is done:
as §1
The TLR4-mediated response to LPS leads to a direct interaction between the TIR domains of TIRAP and MyD88, resulting in the subsequent activation of the MyD88-dependent downstream cascade. […] The inhibitory effects of the peptides (TIP1 and TIP2) in the absence of CPP were evaluated by measuring the SEAP activity in HEK-Blue hTLR4 cells. […]

The target in assay [4] is T1, TLR4 TIR domain BB loop peptide (Homo sapiens).
T1 chain: RDFIPGVAIAA
Put plainly: SPR. (In general: In SPR one partner is held on a chip, and binding of the other changes the refractive index at the surface.)

Ends that are not written are not given here.

With “TIPLLS [TIP2 without CPP, TIP2 peptide not conjugated with CPP]”, in assay [1], the “LPS-induced NF-κB activity (SEAP), peptides in the absence of CPP” value was “neither peptide significantly inhibited NF-κB activity”. Besides, the “inhibitory effect on TNF-α secretion after removal of CPP” value in assay [2] was “loss of the inhibitory effect”. Regarding “TIPLLS [TIP2, TIPLLS from the TIR domain of TIRAP, conjugated in tandem to a cell-penetrating peptide (…) at N terminus]”, in assay [1] (CPP-conjugated peptide, 12.5 to 50 μM, peptide 1 h before LPS, 24 h), the “LPS-induced SEAP activity (NF-κB)” value is “did not hinder LPS-induced NF-κB activity”. In assay [3], the “IL-1β-induced NF-κB activity (SEAP)” value was “did not exert any significant inhibitory effects”. Turning to “SHCRVLLI [TIP1 without CPP, TIP1 peptide not conjugated with CPP]”, the “LPS-induced NF-κB activity (SEAP), peptides in the absence of CPP” value in assay [1] is “neither peptide significantly inhibited NF-κB activity”. Besides, the “inhibitory effect on TNF-α secretion after removal of CPP” value in assay [2] was “loss of the inhibitory effect”.

What is called Kd is a measure of binding affinity in units of concentration. Low readings indicate tighter binding, high ones weaker binding. Molecule RQIKIWFQNRRMKWKKSHCRVLLI (also: biotinylated and immobilized) [TIP1 (TIRAP TIR-derived decoy peptide with N-terminal antennapedia CPP)] gave a dissociation constant Kd in assay [4] of 40.2 µM.

The record behind these values is article PMC6486608, “A cell-penetrating peptide blocks Toll-like receptor-mediated downstream signaling and ameliorates autoimmune and inflammatory diseases in mice” (Experimental & Molecular Medicine, 2019).
